Laboratory results published in ChEMBL document CHEMBL1126513, “Quinuclidine-based NK-1 antagonists I: 3-benzyloxy-1-azabicyclo[2.2.2]octanes” (Bioorg Med Chem Lett, 1993).

Target: Substance-P receptor (Homo sapiens, UniProt P25103)
Test: Displacement of [125]Substance P Binding from human Neurokinin NK1 receptor in CHO Cells

Sequence of Substance-P receptor (P25103 whole entry): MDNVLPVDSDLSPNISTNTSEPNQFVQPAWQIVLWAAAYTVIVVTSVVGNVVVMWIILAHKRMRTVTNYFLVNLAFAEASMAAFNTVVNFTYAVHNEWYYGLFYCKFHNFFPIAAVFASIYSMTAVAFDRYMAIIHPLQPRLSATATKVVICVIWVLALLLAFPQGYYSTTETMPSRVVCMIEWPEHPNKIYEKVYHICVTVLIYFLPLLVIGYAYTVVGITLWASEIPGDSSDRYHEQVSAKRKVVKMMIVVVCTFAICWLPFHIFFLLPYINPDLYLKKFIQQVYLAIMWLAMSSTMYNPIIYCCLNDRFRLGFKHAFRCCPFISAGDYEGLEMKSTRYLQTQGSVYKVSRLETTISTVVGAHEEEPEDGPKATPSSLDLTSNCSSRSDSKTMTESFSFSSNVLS

| Structure (SMILES) | IC50 [nM] |
| --- | --- |
| Cc1cccc(CO[C@H]2C3CCN(CC3)[C@H]2C(c2ccccc2)c2ccccc2)c1 | 21 |
| O=C(N[C@H]1C2CCN(CC2)[C@H]1C(c1ccccc1)c1ccccc1)c1ccccc1 | > 1000 |
| O=S(=O)(N[C@H]1C2CCN(CC2)[C@H]1C(c1ccccc1)c1ccccc1)c1ccccc1 | > 1000 |
| c1ccc(CCN[C@H]2C3CCN(CC3)[C@H]2C(c2ccccc2)c2ccccc2)cc1 | 700 |
| O=C(Nc1ccccc1)N[C@H]1C2CCN(CC2)[C@H]1C(c1ccccc1)c1ccccc1 | > 1000 |
| Cc1ccccc1CO[C@H]1C2CCN(CC2)[C@H]1C(c1ccccc1)c1ccccc1 | 183 |
| Cc1ccc(C)c(CO[C@H]2C3CCN(CC3)[C@H]2C(c2ccccc2)c2ccccc2)c1 | 48 |
| O=C(Nc1ccccc1)O[C@H]1C2CCN(CC2)[C@H]1C(c1ccccc1)c1ccccc1 | > 1000 |
| S=C(Nc1ccccc1)N[C@H]1C2CCN(CC2)[C@H]1C(c1ccccc1)c1ccccc1 | > 1000 |
| O=C(N[C@H]1C2CCN(CC2)[C@H]1C(c1ccccc1)c1ccccc1)Oc1ccccc1 | > 1000 |
| c1ccc(CO[C@H]2C3CCN(CC3)[C@H]2C(c2ccccc2)c2ccccc2)cc1 | 110000 |
| Cc1ccc(CO[C@H]2C3CCN(CC3)[C@H]2C(c2ccccc2)c2ccccc2)cc1 | 290 |
| Cc1ccc(CO[C@H]2C3CCN(CC3)[C@H]2C(c2ccccc2)c2ccccc2)cc1C | 197 |
| c1ccc(CN[C@H]2C3CCN(CC3)[C@H]2C(c2ccccc2)c2ccccc2)cc1 | 150 |
| Cc1cc(C)cc(CO[C@H]2C3CCN(CC3)[C@H]2C(c2ccccc2)c2ccccc2)c1 [L-706125] | 1 |
